The structures appear in SMILES notation. “And” between values parts separate entries of the source, which are not always exact repeats. Equal values may be shown once. Marks after values point to notes of the source that are not given here.

We go through two compounds from patent US20250295654A1, “METHODS OF TREATING METABOLIC DISEASES WITH FUSED BICYCLIC PYRAZOLES” (Belite Bio, Inc, priority 2019, published 2025).

What all share (assay type): in vivo
Data set [1] in a line: Compound 1 single dose mouse PK study. The note with it: male CD-1 mice, single iv dose 2 mg/kg; first plasma collection time. Here is the method: A pharmacokinetic study of Compound 1 following a single intravenous or oral dose administration to male CD-1 mice was conducted, the results of which are found in Table 4 and FIGS. 15-20.
A short description of data set [2]: Compound 1 single dose rat PK study. The note with it: male Sprague Dawley rats, single iv dose 2 mg/kg, first plasma collection time listed as Tmax. The protocol: A pharmacokinetic study of Compound 1 following a single intravenous or oral dose administration to male Sprague Dawley rats was conducted, the results of which are found in Table 3 and FIGS. 9-14.

Data set [3] is described as follows: Compound 2 single dose rat PK study. The note with it: male Sprague Dawley rats, single iv dose 2 mg/kg; for Tmax: first plasma collection time or observed time of highest plasma concentration. Here is the method:
A pharmacokinetic study of Compound 2 following a single intravenous or oral dose administration to male Sprague Dawley rats was conducted, the results of which are found in Table 5 and FIGS. 21-24.

As usually defined, the Tmax is the time from dosing to the highest level. Regarding `CC(=O)N1CCc2c(C(=O)N3CCC(c4ccc(F)c(F)c4C(F)(F)F)CC3)n[nH]c2C1` [Compound 1, 1-(3-(4-(3,4-difluoro-2-(trifluoromethyl)phenyl)piperidine-1-carbonyl)-1,4,5,7-tetrahydro-6H-pyrazolo[3,4-c]pyridin-6-yl)ethan-1-one], the time of peak concentration (Tmax) in data set [1] is 0.083^b hr; in data set [2] (Mean), 4.98 min; in data set [2] (individual rat), 4.98 min.
Turning to `CC(=O)N1Cc2[nH]nc(C(=O)N3CCC(c4ccc(F)c(F)c4C(F)(F)F)CC3)c2C1` [Compound 2, 1-(3-(4-(3,4-difluoro-2-(trifluoromethyl)phenyl)piperidine-1-carbonyl)-4,6-dihydropyrrolo[3,4-c]pyrazol-5(1H)-yl)ethan-1-one], the Tmax in data set [3] (Mean) came to 13.3 min. Also, in data set [3] (individual rat, 2 mg/kg), the AUCinf is 4027 ng·h/mL and 5052 ng·h/mL; the Cl is 248 mL/h/kg and 198 mL/h/kg; the Tmax was determined as 4.98 min.
